Experimental findings from US20090042882A1, “SUBSTITUTED ACETAMIDES AS MODULATORS OF THE EP2 RECEPTOR” (priority 2007, published 2009) are described below.

Structures are written as SMILES.

The subject of experiment [1] is cumulus-oocyte complexes (cumulus expansion). Briefly: cumulus expansion assay in vitro. Format: cell-based, mice. The protocol:
Folliculogenesis is induced in immature female mice (strain: CD1 (ICR) from Charles River) at an age of 14-18 days by a single dose (intraperitoneal) of 10 I.U. of PMSG (Pregnant Mare Serum Gonadotropine; Sigma G-4877, Lot 68H0909). 47-50 hours after the injection, the ovaries are removed and the cumulus-oocyte complexes are removed. The cumulus complex is not yet expanded at this stage.
The cumulus-oocyte complexes are then incubated with prostaglandin E2 (PGE2) (0.3 μM), vehicle control (ethanol) or test substances for 20-24 hours. Medium: alpha-MEM medium with 0.1 mM IBMX, pyruvates (0.23 mM) glutamines (2 mM), pen/strep 100 IU/ml pen. and 100 μg/ml strep.) and HSA (8 mg/ml)). Cumulus expansion is then established through the division into four stages (according to Vanderhyden et al. Dev Biol. 1990 August; 140 (2):307-317).

Experiment [2] concerns the target T1, human prostaglandin E2 (subtype EP2) receptor (Homo sapiens, UniProt P43116).
T1 construct: host or cells: cells in a culture plate
Put plainly: cAMP antagonism assay. Format: cell-based. The following applies: in the presence of PGE2. The protocol:
(§1) The binding of PGE2 to the EP2 subtype of the human PGE2 receptor induces activation of membrane-associated adenylate cyclases and leads to the formation of cAMP. In the presence of the phosphodiesterase inhibitor IBMX, cAMP which has accumulated due to this stimulation and been released by cell lysis is employed in a competitive detection method. In this assay, the cAMP in the lysate competes with cAMP-XL665 for binding of an Eu cryptate-labelled anti-cAMP antibody.
(§2) The two signals are measured in a suitable measuring instrument with a time lag, i.e. after the background fluorescence has declined.
(§3) The substance solutions (0.75 μl) introduced into an assay plate and 30% DMSO are dissolved in 16 μl of a KRSB+IBMX stimulation solution (1× Krebs-Ringer Bicarbonate Buffer; Sigma-Aldrich # K-4002; including 750 μM 3-isobutyl-1-methylxanthine Sigma-Aldrich # I-7018), and then 15 μl thereof are transferred into a media-free cell culture plate which has been washed with KRSB shortly beforehand.
After preincubation at room temperature (RT) for 30 minutes, 5 μl of a 4×PGE2 solution (11 nM) are added, and incubation is carried out in the presence of the agonist at RT for a further 60 min (volume: ˜20 μl) before the reaction is then stopped by adding 5 μl of lysis buffer and incubated at RT for a further 20 min (volume: ˜25 μl). The cell lysate is then transferred into a measuring plate and measured in accordance with the manufacturer's information (cyclic AMP kit Cisbio International #62AMPPEC).

Experiment [3] addresses T1, human prostaglandin E2 (subtype EP2) receptor. Put plainly: cellular cAMP agonism assay. Format: cell-based. How it is done: as §1, §2, §3
After incubation at room temperature (RT; volume: ˜15 μl) for 60 minutes, the reaction is then stopped by adding 5 μl of lysis buffer and incubated at RT for a further 20 min (volume: ˜20 μl). The cell lysate is then transferred into a measuring plate and measured in accordance with the manufacturer's information (cyclic AMP kit Cisbio International #62AMPPEC).

T1 sequence (P43116 whole entry): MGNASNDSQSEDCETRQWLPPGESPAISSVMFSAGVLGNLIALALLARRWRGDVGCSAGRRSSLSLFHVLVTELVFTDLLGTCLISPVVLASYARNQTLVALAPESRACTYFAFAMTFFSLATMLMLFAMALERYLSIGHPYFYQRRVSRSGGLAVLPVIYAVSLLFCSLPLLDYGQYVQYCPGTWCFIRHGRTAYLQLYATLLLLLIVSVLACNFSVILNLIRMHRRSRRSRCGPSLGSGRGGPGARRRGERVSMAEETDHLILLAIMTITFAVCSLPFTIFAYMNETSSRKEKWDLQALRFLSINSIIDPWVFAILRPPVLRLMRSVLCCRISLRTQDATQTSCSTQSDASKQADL

For the compound `CC(C)Oc1ccc2c(=O)c3cc(C(=O)O)ccc3oc2c1` [AH 6809, reference compound], the “inhibition of cumulus expansion” value in experiment [1] (concentration 100-200 μM, competing with the natural EP2 receptor agonist PGE2) was about 30%.
Consider `COc1ccc(OCC(=O)NCCc2c(C)[nH]c3c(F)ccc(C)c23)cc1` [Example 1, N-[2-(7-Fluoro-2,4-dimethyl-1H-indol-3-yl)ethyl]2-(4-methoxyphenoxy)acetamide], for which the IC50 in experiment [2] worked out at 1100 nM.
Same read-out and setting: the figure for `Cc1[nH]c2c(F)ccc(C)c2c1CCNC(=O)COc1ccccc1` [Example 5, N-[2-(7-Fluoro-2,4-dimethyl-1H-indol-3-yl)-ethyl]-2-phenoxy-acetamide] is 2700 nM.
For the compound `Cc1[nH]c2c(F)ccc(C)c2c1CCNC(=O)COc1ccc(Cl)cc1` [Example 6, 2-(4-Chlorophenoxy)-N-[2-(7-fluoro-2,4-dimethyl-1H-indol-3-yl)ethyl]-acetamide], in experiment [3], the “effect in the cellular agonism test” value is given as “no inhibition”. Besides, in experiment [2], the half-maximal inhibitory concentration (IC50) came to 1300 nM. Further, the “inhibition of cumulus expansion” value in experiment [1] (concentration 10 μM (10 to 20 times lower than AH 6809), competing with PGE2) turned out to be 30%.
